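Values below derive from 48-hour exposures of cells grown in 96-well plates, with endpoints linearly interpolated between the two concentrations bracketing the appropriate inhibition level. Abbreviation: GI50, concentration required for 50% inhibition of growth.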 Activity calls are given as the source filed them. No stated cut-off is given here; in the data, active = GI50 up to about 1.1 µM and inactive = higher. Peptide text beside a SMILES is read from it.
How the values were obtained:
Assay in all cases: growth of human tumour cells (NCI), 48 h
[1] = tested on: DU-145
[2] = tested on: SK-MEL-2
[3] = tested on: EKVX
[4] = tested on: 786-0
[5] = tested on: HCT-116
[6] = tested on: MDA-MB-435
[7] = tested on: HCC 2998
[8] = tested on: COLO 205
[9] = tested on: NCI/ADR-RES
[10] = tested on: UACC-257
[11] = tested on: KM12
[12] = tested on: NCI-H226
[13] = tested on: HOP-62
[14] = tested on: RPMI-8226
[15] = tested on: A549
[16] = tested on: CCRF-CEM
[17] = tested on: PC-3
[18] = tested on: A498
[19] = tested on: SNB-19
[20] = tested on: Hs-578T

Measured: GI50

Cc1ncc(-c2nnnn2-c2ccccc2)c(C(=O)O)n1
inactive: [1] > 100 µM | [2] 33.3 µM | [3] > 100 µM | [4] > 100 µM | [5] > 100 µM | [6] > 100 µM | [7] > 100 µM | [8] > 100 µM | [9] > 100 µM | [10] > 100 µM | [11] > 100 µM | [12] > 100 µM | [13] > 100 µM | [14] > 100 µM | [15] > 100 µM | [16] > 100 µM | [17] > 100 µM | [18] > 100 µM | [19] > 100 µM | [20] > 100 µM

Cc1cc2c(c(/C=N/Cc3ccccc3)c1)OC1(C=C2)Oc2ccccc2C(=O)N1C (stereo not given)
inactive: [1] 25.4 µM | [2] 24.9 µM | [3] 15.3 µM | [4] 29.4 µM | [5] 21 µM | [6] 28.7 µM | [7] 27.1 µM | [8] 17.9 µM | [9] 20.2 µM | [10] 25.8 µM | [11] 25.2 µM | [12] 16 µM | [13] 31.6 µM | [14] 12.1 µM | [15] 29.5 µM | [16] 11.6 µM | [17] 24.7 µM | [18] 23.9 µM | [19] 31.6 µM | [20] 18.3 µM

CC(C)CC(NC(=O)C(CC(C)C)NC(=O)C(Cc1c[nH]cn1)NC(=O)C(C)NC(=O)C(NC(=O)C(C)NC(=O)C(Cc1c[nH]c2ccccc12)NC(=O)C(CCC(=O)O)NC(=O)C(N)Cc1ccccc1)C(C)C)C(N)=O (stereo not given) (H-FEWAVAHLL-NH2; configuration not given here)
inactive: [1] > 12.5 µM | [2] > 12.5 µM | [3] > 12.5 µM | [4] > 12.5 µM | [5] > 12.5 µM | [6] > 12.5 µM | [7] > 12.5 µM | [8] > 12.5 µM | [9] > 12.5 µM | [10] > 12.5 µM | [11] > 12.5 µM | [12] > 12.5 µM | [13] > 12.5 µM | [14] > 12.5 µM | [15] > 12.5 µM | [16] > 12.5 µM | [17] > 12.5 µM | [18] > 12.5 µM | [19] > 100 µM | [20] > 12.5 µM

C/C=N\n1c(C)n[nH]c1=O
inactive: [1] > 100 µM | [2] > 100 µM | [3] > 100 µM | [4] > 100 µM | [5] > 100 µM | [6] > 100 µM | [7] > 100 µM | [8] > 100 µM | [9] > 100 µM | [10] > 100 µM | [11] > 100 µM | [12] > 100 µM | [13] > 100 µM | [14] > 100 µM | [15] > 100 µM | [16] > 100 µM | [17] > 100 µM | [18] > 100 µM | [19] > 100 µM | [20] > 100 µM
